In assay [1] the test system is nematode C. elegans. Conditions: cited from earlier work.
Assay [2] relates to C. elegans of the Bristol N2 strain. Kind of assay: Automated feeding assay (bead ingestion, pharyngeal pumping). Type of assay: in vivo, Caenorhabditis elegans. The conditions noted are these: for Effect of 0.325 mM compound on serotonin-stimulated (0.325 mM) bead ingestion: 0.325 mM compound plus 0.325 mM serotonin; for Effect of 0.325 mM compound on bead ingestion: no added serotonin. The source says:
An automated screening assay has been developed and described in the present Applicants' co-pending International patent application No. PCT/AU00/01476 (WO 01/40500). Using the screening assay, twenty novel tropanyl ester compounds as well as tropanyl dichlorobenzoate were screened for nematicidal activity.
The assay used was essentially that described in WO 01/40500 with minor modifications. The protocol was as follows:
(1.) Plate Culture. C. elegans of the Bristol N2 strain (Brenner, 1974) were cultured at room temperature on HMS174 E. coli bacteria (Campbell et al., 1978) spread on a 150 mm diameter petri dish containing enhanced NGM 1.7% (w/v) (Avery and Horvitz, 1990) agar until a good population of adult nematodes was present, but food reserves had not been exhausted.
(2.) The nematodes were collected by washing each plate with 10 mL and then 5 mL of M9 buffer plate and filtering over a 20 μm nylon mesh (Nytal—Catalogue no. BCNY-HDO02-20) to retain adult nematodes. The nematodes from 7-8 of these 150 mm plates were collected together and placed on a 63 μm mesh filter (Nytal—product code PA-25-43) and washed with 200-250 mL of M9 buffer or MilliQ water. This procedure allows the passage of nematodes whilst retaining larger debris. Finally the nematodes were collected over a 20 μm mesh.
(3.) Adult nematodes were collected from the mesh using a pasteur pipette and allowed to settle in an eppendorf tube at 1×g for 10 minutes. This packed volume was used to calculate quantities of nematodes for experiments and assays, although nematodes were resuspended in 2-10 volumes of M9 buffer for transfer. Quantitative transfers of nematodes were performed using a Gilson Pipetman P200 or equivalent and a yellow tip with 5 mm cut off the sharp end.
(4.) Assays were performed in 24 well tissue-lture clusters (Nunc multidish). The final assay volume was 230 μL comprising the following sequential additions: • (i) M9 buffer—sufficient to bring the final volume to 230 μL • ([…]) Any other pharmacological agents—≦1.5 μL of drug in DMSO (or water) • (iv) Nematodes—150 μL of a 10% (v/v) stock in M9 • (v) Fluorescent beads—23 μL of a 1% w/v solution in M9.
Where serotonin or other pharmacological agents were omitted, the volume was adjusted with M9 buffer. Control experiments included 1.5 μL of DMSO except in the case of ondansetron, which was added from an aqueous stock.
The fluorescent beads were 1.30 μm uniformly dyed microsphere beads with a hydrophilic surface-coating. The fluorescence excitation maximum was 420 nm and the emission maximum was 485 nm (catalogue code FC04F, carboxylate-modified polystyrene/polyvinyl copolymer, manufactured and supplied by Bangs Laboratories, Inc. 9025 Technology Drive, Fishers, INDIANA 46038-2886, USA).
(5.) The nematodes were incubated for 60 minutes after the addition of the fluorescent beads at room temperature (≈21° C.) without shaking. The assay was terminated by the addition of 20 μL of 100 mM sodium azide.
(6.) Two aliquots of 100 μl each were transferred from each well of the 24 well cluster to a pair of wells in a pre-blocked mesh-bottomed plate (see below for details of the mesh-bottomed plate) and the buffer/bead suspension was immediately aspirated away through the filter mesh using a Millipore Multiscreen vacuum manifold.
(7.) A total of eight washing steps were performed. Each of the first five washes used 200 μL of 1%(w/v) sodium lauryl sulphate (SDS—Sigma) in M9 buffer. The third and fifth washes involved pipetting the solution up and down in the wells of the plate ten times each wash. The SDS washes were followed by three washes with 200 μL of M9 buffer only. At the end of each washing step, solutions were aspirated away through the mesh using a Millipore Multiscreen vacuum manifold. […]

Where [3] appears, read: in the presence of 1 mM serotonin, estimated from log dose response curves (FIG. 2).

This is an account of results in patent US20050054680A1, “Agonists and antagonists of 5h3-like receptors of invertebrates as pesticides” (priority 2001, published 2005).

Entries after “also recorded” stand apart in the source; their conditions may differ. Like-named read-outs stand apart in the source and are kept apart here.

Consider `Cc1[nH]c2ccc(O)cc2c1CCN.Cl` [2-methyl-5-hydroxytryptamine, 2-methyl-5-hydroxytryptamine hydrochloride], for which the Effect on locomotion result in assay [1] (3 mM) is on record as “did not inhibit locomotion”. Further, the “Effect on pharyngeal pumping” value in assay [1] (3 mM) was “strongly stimulated”; in assay [1] (as summarised in the background, no concentration given) it was “strongly and specifically stimulated”.
With `CN1[C@@H]2CC[C@H]1CC(OC(=O)c1ccc(Cl)c(Cl)c1)C2` (stereo partly drawn) [DCP-45228 (8), 3,4-dichloro-benzoic acid tropan-3-yl ester], in assay [2], the “Effect of 0.325 mM compound on serotonin-stimulated (0.325 mM) bead ingestion” value (“Effect … (0.325 mM) bead ingestion” for short) is listed as “strongly reversed; also recorded: reverses strongly” and the “Effect of 0.325 mM compound on bead ingestion” value (“Effect … on bead ingestion” for short) is given as “reduced; also recorded: inhibits”. Moreover, the Implied IC50 without serotonin (extrapolated from IC50 ratio, not measured) in assay [2] (Caenorhabditis elegans, in the absence of added serotonin, implied from the tropanyl dichlorobenzoate IC50 ratio with and without serotonin, read-out: IC50 and therefore chronic EC50 implied from differential factor) is about 6 µM.
As for `CN1[C@@H]2CC[C@H]1CC(OC(=O)c1cccc(Cl)c1)C2` (stereo partly drawn) [DCP-45224 (4), 3-chloro-benzoic acid tropan-3-yl ester], in assay [2], the “Effect … (0.325 mM) bead ingestion” value was “strongly reversed; also recorded: reverses strongly” and the “Effect … on bead ingestion” value was “no effect”. In addition, in assay [2] (setting [3]), the “IC50 (inhibitory concentration 50%) for bead ingestion” value was “impossible to estimate”.
With `CN1[C@@H]2CC[C@H]1CC(OC(=O)c1ccc(Cl)cc1)C2` (stereo partly drawn) [DCP-45225 (5), 4-chloro-benzoic acid tropan-3-yl ester], in assay [2], the “Effect … (0.325 mM) bead ingestion” value was “no effect” and the “Effect … on bead ingestion” value is “no effect”.
As for `COC(=O)[C@H]1CC[C@H](C(=O)OC2C[C@H]3CC[C@@H](C2)N3C)CC1` (relative stereo) [DCP-45235 (15), trans-cyclohexane-1,4-dicarboxylic acid methyl ester tropan-3-yl ester], in assay [2], the “Effect … (0.325 mM) bead ingestion” value was “no effect/reverses” and the “Effect … on bead ingestion” value was “no effect”.
On the same counts, the results for `COC(=O)c1ccc(C(=O)OC2C[C@H]3CC[C@@H](C2)N3C)cc1` (stereo partly drawn) [DCP-45236 (16), terephthalic acid methyl ester tropan-3-yl ester] are “no effect” and “no effect”.
Regarding `CN1[C@@H]2CC[C@H]1CC(OC(=O)C1CCC1)C2` (stereo partly drawn) [DCP-45234 (14), cyclobutanecarboxylic acid tropan-3-yl ester], in assay [2], the “Effect … (0.325 mM) bead ingestion” value is listed as “no effect” and the “Effect … on bead ingestion” value is “no effect”.
In the case of `COC(=O)c1cncc(C(=O)OC2C[C@H]3CC[C@@H](C2)N3C)c1` (stereo partly drawn) [DCP-45239 (19), pyridine-3,5-dicarboxylic acid methyl ester tropan-3-yl ester], in assay [2], the “Effect … (0.325 mM) bead ingestion” value was “potentiates marginally” and the “Effect … on bead ingestion” value is on record as “no effect”.
Turning to `COC(=O)c1ccccc1C(=O)OC1C[C@H]2CC[C@@H](C1)N2C` (stereo partly drawn) [DCP-45238 (18), phthalic acid methyl ester tropan-3-yl ester], in assay [2], the “Effect … (0.325 mM) bead ingestion” value is recorded as “strongly reversed; also recorded: reverses markedly” and the “Effect … on bead ingestion” value is “no effect”.
`CN1[C@@H]2CC[C@H]1CC(OC(=O)c1c(F)cccc1F)C2` (stereo partly drawn) [DCP-45227 (7), 2,6-difluoro-benzoic acid tropan-3-yl ester]: in assay [2], the “Effect … (0.325 mM) bead ingestion” value is reported as “reverses marginally” and the “Effect … on bead ingestion” value is recorded as “no effect”.
Take `CN1[C@@H]2CC[C@H]1CC(OC(=O)C1CC1)C2` (stereo partly drawn) [DCP-45233 (13), cyclopropanecarboxylic acid tropan-3-yl ester]: in assay [2], the “Effect … (0.325 mM) bead ingestion” value is listed as “potentiates marginally” and the “Effect … on bead ingestion” value is on record as “no effect”.
On the same counts, the results for `CN1[C@@H]2CC[C@H]1CC(OC(=O)c1cc(F)ccc1F)C2` (stereo partly drawn) [DCP-45226 (6), 2,5-difluoro-benzoic acid tropan-3-yl ester] are “reverses marginally” and “no effect”.
With `CN1[C@@H]2CC[C@H]1CC(OC(=O)c1ccccc1F)C2` (stereo partly drawn) [DCP-45229 (9), 2-fluoro-benzoic acid tropan-3-yl ester], in assay [2], the “Effect … (0.325 mM) bead ingestion” value was “strongly reversed; also recorded: reverses marginally” and the “Effect … on bead ingestion” value is “no effect”. Further, in assay [2] (in the presence of 1 mM serotonin, at lower doses), the “Anomalous activity in dose response for bead ingestion” value is “very strong stimulatory effects”. Besides, the “IC50 (inhibitory concentration 50%) for bead ingestion” value in assay [2] (setting [3]) is listed as “impossible to estimate”.
As for `COC(=O)c1cccc(C(=O)OC2C[C@H]3CC[C@@H](C2)N3C)c1` (stereo partly drawn) [DCP-45237 (17), isophthalic acid methyl ester tropan-3-yl ester], in assay [2], the “Effect … (0.325 mM) bead ingestion” value is “no effect” and the “Effect … on bead ingestion” value was “no effect”.
Take `CC(Oc1ccccc1)C(=O)OC1C[C@H]2CC[C@@H](C1)N2C` (stereo partly drawn) [DCP-45230 (10), 2-phenoxy-propionic acid tropan-3-yl ester]: in assay [2], the “Effect … (0.325 mM) bead ingestion” value is “reverses marginally” and the “Effect … on bead ingestion” value is reported as “inhibits”.
Turning to `COC(=O)C12C3C4C1C1C2C3C41C(=O)OC1C[C@H]2CC[C@@H](C1)N2C` (stereo partly drawn) [DCP-45232 (12), cubane-1,4-dicarboxylic acid methyl ester tropan-3-yl ester], the “Effect … (0.325 mM) bead ingestion” value in assay [2] (observed with an unpurified mixture) is “reverses marginally^1”. Moreover, the “Effect … on bead ingestion” value in assay [2] is listed as “no effect”.
As for `CN1[C@@H]2CC[C@H]1CC(OC(=O)Cc1ccccc1)C2` (stereo partly drawn) [DCP-45231 (11), phenyl-acetic acid tropan-3-yl ester], in assay [2], the “Effect … (0.325 mM) bead ingestion” value is reported as “reverses marginally” and the “Effect … on bead ingestion” value was “inhibits”.
Turning to `CN1[C@@H]2CC[C@H]1CC(OC(=O)c1ccccc1Cl)C2` (stereo partly drawn) [DCP-45222 (2), 2-chloro-benzoic acid tropan-3-yl ester], in assay [2], the “Effect … (0.325 mM) bead ingestion” value was “no effect” and the “Effect … on bead ingestion” value was “no effect”.
On to `CN1[C@@H]2CC[C@H]1CC(OC(=O)c1c[nH]c3ccccc13)C2` (stereo partly drawn) [DCP-45240 (20), 1H-indole-3-carboxylic acid tropan-3-yl ester], for which, in assay [2], the “Effect … (0.325 mM) bead ingestion” value was “reverses markedly” and the “Effect … on bead ingestion” value is recorded as “no effect”. In addition, in assay [2] (Caenorhabditis elegans, in the presence of 1 mM serotonin, estimated from log dose response curves (FIG. 2), read-out: IC50 (inhibitory concentration 50%) for bead ingestion), the IC50 is 316 µM.
In the case of `CN1[C@@H]2CC[C@H]1CC(OC(=O)c1cccc(CCl)c1)C2` (stereo partly drawn) [DCP-45223 (3), 3-chloromethyl-benzoic acid tropan-3-yl ester], in assay [2], the “Effect … (0.325 mM) bead ingestion” value is listed as “no effect” and the “Effect … on bead ingestion” value is listed as “no effect”.
Turning to `CN1[C@@H]2CC[C@H]1CC(OC(=O)c1ccccc1)C2` (stereo partly drawn) [DCP-45221 (1), benzoic acid tropan-3-yl ester], in assay [2], the “Effect … (0.325 mM) bead ingestion” value was “potentiates marginally” and the “Effect … on bead ingestion” value is “stimulates marginally”.
